Measurements as given in the supplement of paper PMC11208160.

Assay: recombinant UMI read abundance after kanamycin selection (control-corrected) (log10(CPM+1)); higher = more efficient recombination; extreme values may be limits of the assay; sequences stand for … in AGTGCAGAGAAAATCGGCCAGTTTTCTCTGCCTGCAGTCCGCATGCCGTGGGACCCCTTGGGTTCTAACCTGTTGCCTAGATTTATGCAGCGGACTGCCTTTCTCCCAAAGTGATAAACCGG…AGGTTGGTTTCACT; site = the 11-nt donor
Method in brief: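 Values, expressed as log10(CPM+1), derive from recombinant UMI counts converted to CPM, averaged across replicates and scaled by control-derived factors. Plating was with IPTG (0.07 mM) plus kanamycin or unselected, two replicates each. The screen pooled donor and donor-binding-loop pairs for the IS621 bridge recombinase in Escherichia coli.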
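Further: IS621 bridge recombinase in Escherichia coli cells against a fixed T5 target plasmid.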

| Sequence | recombinant UMI read abundance (log10) |
| --- | --- |
| CACTCCTCATGGACCGGTTTTCCCGGTAATCCGTATTTGTC (site CACTCCTCTGT) | 3.06 |
| CACTCGGCATGGACCGGTTTTCCCGGTAATCCGTATTTGAT (site CACTCGGCTAT) | 2.18 |
| CACTCGGCATGGACCGGTTTTCCCGGTAATCCGTATTTGTA (site CACTCGGCTTA) | 2.18 |
| CACTCTACATGGACCGGTTTTCCCGGTAATCCGTATTTGTA (site CACTCTACTTA) | 0.722 |
| CACTGATCATGGACCGGTTTTCCCGGTAATCCGTATTTGCT (site CACTGATCTAG) | 2.61 |
| CACTGATCATGGACCGGTTTTCCCGGTAATCCGTATTTGGG (site CACTGATCTCC) | 1.27 |
| CACTTCGCATGGACCGGTTTTCCCGGTAATCCGTATTTGGA (site CACTTAGCTTC) | 0.0127 |
| CACTTCGCATGGACCGGTTTTCCCGGTAATCCGTATTTGGA (site CACTTCGCTTC) | 0.493 |
| CACTTCGCATGGACCGGTTTTCCCGGTAATCCGTATTTGGA (site CACTTGGCTTC) | 0 |
| CACTTCGCATGGACCGGTTTTCCCGGTAATCCGTATTTGGA (site CACTTTGCTTC) | 0.00357 |
| CACTTGGCATGGACCGGTTTTCCCGGTAATCCGTATTTGCA (site CACTTGGCTTA) | 0.00954 |
| CACTTGGCATGGACCGGTTTTCCCGGTAATCCGTATTTGCA (site CACTTGGCTTC) | 0.0203 |
| CACTTGGCATGGACCGGTTTTCCCGGTAATCCGTATTTGCA (site CACTTGGCTTG) | 0.498 |
| CACTTGGCATGGACCGGTTTTCCCGGTAATCCGTATTTGCA (site CACTTGGCTTT) | 0.0216 |
| CACTTGGCATGGACCGGTTTTCCCGGTAATCCGTATTTGCT (site CACTTGGCTAG) | 0 |
| CAGAACCCATGGACCGGTTTTCCCGGTAATCCGTATTTGAG (site CAGAACCCTCT) | 1.35 |
| CAGAAGACATGGACCGGTTTTCCCGGTAATCCGTATTTGCA (site AGGAAGACTTG) | 0.401 |
| CAGAAGACATGGACCGGTTTTCCCGGTAATCCGTATTTGCA (site CAGAAGACTTG) | 3.09 |
| CAGACGACATGGACCGGTTTTCCCGGTAATCCGTATTTGGG (site CAGACGACTCC) | 0.00735 |
| CAGACGACATGGACCGGTTTTCCCGGTAATCCGTATTTGGG (site CAGCCGACTCC) | 0.0345 |
| CAGACGACATGGACCGGTTTTCCCGGTAATCCGTATTTGGG (site CAGGCGACTCC) | 0.0123 |
| CAGACGACATGGACCGGTTTTCCCGGTAATCCGTATTTGGG (site CAGTCGACTCC) | 0.0666 |
| CAGATCCCATGGACCGGTTTTCCCGGTAATCCGTATTTGGT (site CAGATCCCTAC) | 1.42 |
| CAGCACGCATGGACCGGTTTTCCCGGTAATCCGTATTTGAT (site CAGCACGCTAT) | 2.39 |
| CAGCCGACATGGACCGGTTTTCCCGGTAATCCGTATTTGGG (site CAGACGACTCC) | 0.0262 |

| Sequence | recombinant UMI read abundance (log10) |
| --- | --- |
| CAGCCGACATGGACCGGTTTTCCCGGTAATCCGTATTTGGG (site CAGCCGACTCC) | 0.188 |
| CAGCCGACATGGACCGGTTTTCCCGGTAATCCGTATTTGGG (site CAGGCGACTCC) | 0.0119 |
| CAGCCGACATGGACCGGTTTTCCCGGTAATCCGTATTTGGG (site CAGTCGACTCC) | 0.00469 |
| CAGCGAACATGGACCGGTTTTCCCGGTAATCCGTATTTGGG (site CAGCGAACTCC) | 0.888 |
| CAGCTACCATGGACCGGTTTTCCCGGTAATCCGTATTTGCT (site CAGCTACCTAG) | 0 |
| CAGCTACCATGGACCGGTTTTCCCGGTAATCCGTATTTGCT (site CCGCTACCTAG) | 0 |
| CAGCTACCATGGACCGGTTTTCCCGGTAATCCGTATTTGCT (site CGGCTACCTAG) | 0 |
| CAGCTACCATGGACCGGTTTTCCCGGTAATCCGTATTTGCT (site CTGCTACCTAG) | 0 |
| CAGGAACCATGGACCGGTTTTCCCGGTAATCCGTATTTGAT (site CAGGAACCTAT) | 0 |
| CAGGAACCATGGACCGGTTTTCCCGGTAATCCGTATTTGAT (site CCGGAACCTAT) | 0 |
| CAGGAACCATGGACCGGTTTTCCCGGTAATCCGTATTTGAT (site CGGGAACCTAT) | 0 |
| CAGGAACCATGGACCGGTTTTCCCGGTAATCCGTATTTGAT (site CTGGAACCTAT) | 0 |
| CAGGACTCATGGACCGGTTTTCCCGGTAATCCGTATTTGTC (site CAGGACTCTGA) | 3.38 |
| CAGGGGTCATGGACCGGTTTTCCCGGTAATCCGTATTTGTA (site CAGGGGTCTTA) | 3.37 |
| CAGTAACCATGGACCGGTTTTCCCGGTAATCCGTATTTGAA (site CAGTAACCTTT) | 0.255 |
| CAGTAACCATGGACCGGTTTTCCCGGTAATCCGTATTTGGA (site CAGTAACCTTC) | 0.00404 |
| CAGTACACATGGACCGGTTTTCCCGGTAATCCGTATTTGAC (site CAGTACACTGT) | 3.63 |
| CAGTAGACATGGACCGGTTTTCCCGGTAATCCGTATTTGTC (site CAGTAGACTGA) | 2.13 |
| CAGTAGGCATGGACCGGTTTTCCCGGTAATCCGTATTTGCA (site CAGTAGGCTTG) | 2.82 |
| CAGTCACCATGGACCGGTTTTCCCGGTAATCCGTATTTGTA (site CAGTCACCTTA) | 0.0069 |
| CAGTCCTCATGGACCGGTTTTCCCGGTAATCCGTATTTGAA (site CAGTCCTCTTT) | 1.96 |
| CAGTCGACATGGACCGGTTTTCCCGGTAATCCGTATTTGAG (site CAGTCGACTCA) | 0.00421 |
| CAGTCGACATGGACCGGTTTTCCCGGTAATCCGTATTTGAG (site CAGTCGACTCC) | 0.0115 |
| CAGTCGACATGGACCGGTTTTCCCGGTAATCCGTATTTGAG (site CAGTCGACTCG) | 0.00367 |
| CAGTCGACATGGACCGGTTTTCCCGGTAATCCGTATTTGAG (site CAGTCGACTCT) | 0.855 |

| Sequence | recombinant UMI read abundance (log10) |
| --- | --- |
| CAGTCGGCATGGACCGGTTTTCCCGGTAATCCGTATTTGGG (site CAGTCGACTCC) | 0.027 |
| CAGTCGGCATGGACCGGTTTTCCCGGTAATCCGTATTTGGG (site CAGTCGCCTCC) | 0.0091 |
| CAGTCGGCATGGACCGGTTTTCCCGGTAATCCGTATTTGGG (site CAGTCGGCTCC) | 0.157 |
| CAGTCGGCATGGACCGGTTTTCCCGGTAATCCGTATTTGGG (site CAGTCGTCTCC) | 0.0153 |
| CAGTCGGCATGGACCGGTTTTCCCGGTAATCCGTATTTGGT (site CAGTCGGCTAC) | 0.814 |
| CAGTGTACATGGACCGGTTTTCCCGGTAATCCGTATTTGCA (site CAGTGTACTTG) | 2.48 |
| CAGTTACCATGGACCGGTTTTCCCGGTAATCCGTATTTGCC (site CAGTTACCTGG) | 0 |
| CAGTTCTCATGGACCGGTTTTCCCGGTAATCCGTATTTGGC (site CAGTTCTCTGC) | 3.27 |
| CAGTTGCCATGGACCGGTTTTCCCGGTAATCCGTATTTGGT (site CAGTTGCCTAC) | 0.0159 |
| CAGTTGTCATGGACCGGTTTTCCCGGTAATCCGTATTTGCG (site CAGTTGTCTCG) | 3.14 |
| CATAACCCATGGACCGGTTTTCCCGGTAATCCGTATTTGAT (site CATAACCCTAT) | 1.19 |
| CATAATCCATGGACCGGTTTTCCCGGTAATCCGTATTTGTT (site CATAATCCTAA) | 0.529 |
| CATAATCCATGGACCGGTTTTCCCGGTAATCCGTATTTGTT (site CGGAATCCTAA) | 0.00373 |
| CATAGCACATGGACCGGTTTTCCCGGTAATCCGTATTTGTA (site CATAGCACTTA) | 1.96 |
| CATATCCCATGGACCGGTTTTCCCGGTAATCCGTATTTGAC (site CATATCCCTGT) | 0.73 |
| CATCACACATGGACCGGTTTTCCCGGTAATCCGTATTTGGG (site CATCACACTCC) | 0.0249 |
| CATCGCCCATGGACCGGTTTTCCCGGTAATCCGTATTTGGT (site CATCGCCCTAC) | 0.296 |
| CATCTGACATGGACCGGTTTTCCCGGTAATCCGTATTTGCG (site CATCTGACTCG) | 1.45 |
| CATCTGTCATGGACCGGTTTTCCCGGTAATCCGTATTTGAC (site CATCTGTCTGT) | 0 |
| CATCTTGCATGGACCGGTTTTCCCGGTAATCCGTATTTGGT (site CATCTTGCTAC) | 0.825 |
| CATGACTCATGGACCGGTTTTCCCGGTAATCCGTATTTGTT (site CATGACTCTAA) | 2.08 |
| CATGCCTCATGGACCGGTTTTCCCGGTAATCCGTATTTGTG (site CATGCCTCTCA) | 1.43 |
| CATGGCTCATGGACCGGTTTTCCCGGTAATCCGTATTTGCG (site CATGGCTCTCG) | 2.15 |
| CATGTAACATGGACCGGTTTTCCCGGTAATCCGTATTTGCT (site AATGTAACTAG) | 0.624 |
| CATGTAACATGGACCGGTTTTCCCGGTAATCCGTATTTGCT (site CATGTAACTAG) | 2.28 |
